According to patent US9932589B2, “EML4-ALK fusion gene” (Astellas Pharma Inc., priority 2006, dated 2018):

Legend:
NPM-ALK = molecular target: T1, NPM-ALK (Homo sapiens, UniProt Q9UM73); settings: Non-Patent Document 22; cited from earlier work
T1 construct: the other entry of the earlier key: NPM1 (P06748, Nucleophosmin)

[1] = test system: EML4-ALK fusion polypeptide v1; test: in vitro kinase activity (autophosphorylation) of purified EML4-ALK fusion polypeptide v1, immunoblotting with anti-phosphorylated ALK antibody; assay type: biochemical, human
Method: (§1) The v1 expressing BA/F3 cells (Example 5(1)) were cultured in RPM1640 medium containing 10% of fetal bovine scrum to obtain 2.7×10^9 cells. After washing 3 times with PBS, cells were lysed in a lysis solution (50 mM Tris HCl (pH7.4), 150 mM NaCl, 1% Triton×100, 5 mM EDTA, 5 mM EGTA, 1 mM NaVO4, 1 mM DTT and protease inhibitor cocktail complete). The EML4-ALK fusion polypeptide v1 present in the supernatant obtained after a centrifugation was purified using ANTI-FLAG M2 Affinity Gel (SIGMA-ALDRICH Inc) according to the method described in the product information document. For washing and elution, the washing solution (50 mM Tris.HCl (pH7.4), 250 mM NaCl, 0.05% Brij35, 1 mM EDTA, 1 mM EGTA, 1 mM NaVO4, 1 mM DTT, complete) and the elution solution (50 mM Tris.HCl (pH7.4), 150 mM NaCl, 0.05% Brij35, 1 mM DTT, 0.5 mg/mL FLAG peptide) were used, respectively. Immunoblotting using anti-ALK antibody and anti FLAG M2 antibody (SIGMA-ALDRICH Inc.) and silver staining were carried out for the eluate to detect the EML4-ALK fusion polypeptide v1.
The EML4-ALK fusion polypeptide v1 purified as described above was diluted in a reaction solution (15 mM Tris HCl (pH7.4), 0.25 mM MgCl2, 0.01% Tween-20, 2 mM DTT), and then ATP was not added or ATP 20 μM was added. The respective mixtures were reacted at room temperature for 1 hour. After the reaction, the auto phosphorylated EML4-ALK fusion polypeptide v1 and the EML4-ALK fusion polypeptide v1 were detected by immunoblotting using anti-phosphorylated ALK antibody, which recognizes specifically the product phosphorylated at the 1604th tyrosine residue of ALK, and anti-ALK antibody, and quantitated by an image analysis system (VersaDoc Imaging System; Bio-Rad Inc.). The amount of phosphorylation was calibrated by dividing the count of the autophosphorylated EML4-ALK fusion polypeptide v1 by the count of the EML4-ALK fusion polypeptide v1. As the result, the autophosphorylated EML4-ALK fusion polypeptide v1 band was detected at the location of about 130 kDa under the condition of ATP addition, and the amount of phosphorylation was increased by about 205 folds compared to no-ATP addition.
(§2) The inhibitory effect of compound A-D against the in vitro kinase activity of the EML4-ALK fusion polypeptide v1 was investigated using anti-phosphorylated ALK antibody and the kinase activity detection kit. Respective compounds were added to the reaction solution containing the EML4-ALK fusion polypeptide v1 at a final concentration of 10 μM or 10 nM, and then the reaction was carried out with or without the addition of ATP. The rest of the operations were carried out according to the method (2) described above. […] The inhibition (%) of the kinase activity of the EML4-ALK fusion polypeptide v1 by a compound was calculated by the following formula. […]

[2] = test system: EML4-ALK fusion polypeptide v1; test: in vitro phosphorylation of peptide substrate (TK substrate 1) by EML4-ALK fusion polypeptide v1, HTRF KinEASE-TK kit; assay type: biochemical, human
Method: as §1
In addition, the phosphorylation activity toward a peptide substrate was investigated using a kinase activity detection kit (HTRF KinEASE-TK; Cisbio Inc.). Using TK substrate 1, which was included in the kit, as the substrate, and after adding no ATP or 100 μM ATP, the mixtures were reacted at room temperature for 1 hour, and the count of HTRF was detected as recommended by the Kits manufacturer. As the result it became clear that the count of HTRF (that is, phosphorylation of the peptide substrate) was increased by about 12 times by the addition of ATP compare to no addition of ATP. As shown above, the in vitro kinase activity of the EML4-ALK fusion polypeptide v1 can be detected using anti-phosphorylated ALK antibody and the kinase activity detection kit.
as §2

[3] = test system: EML4-ALK fusion polypeptide v1; test: intracellular autophosphorylation of EML4-ALK fusion polypeptide v1 in v1 expressing BA/F3 cells; assay type: cell-based, human; settings: for Inhibition on autophosphorylation (BA/F3cells): 6 hours
Method: Compound A (1 μM, 5 μM and 10 μM) was added to the culture medium of v1 expressing BA/F3 cells (Example 5(1)) or not added, and cultured for 3 hours. In addition, BA/F3 cells expressing FLAG-EML4-ALKv1(K589M) were produced using pMX-iresCD8 vector in which EML4-ALK (K589M) was integrated so that FLAG can be added, and cultured. After culturing, cells were counted and the level of phosphorylation of tyrosine of EML4-ALK fusion polypeptide v1 was measured by immunoblotting using anti-phosphorylated ALK antibody. Further, for the same transfer membrane, immunoblotting analysis by anti-FLAG tag antibody (Eastman Kodak Inc.) was carried out, and total protein quantity of the FLAG attached EML4-ALK fusion polypeptide v1 was measured.
However, the culturing time after the addition of the compounds was 6 hours, and the total protein amount of the EML4-ALK fusion polypeptide v1 was measured using anti-ALK antibody. In addition, the amount of phosphorylation was calculated by quantitating as in Example 7(2). Also, for compound A, the amount of phosphorylation was calculated by quantitating in experiment under this condition. The rate of inhibition was calculated from the amount of phosphorylation when the compound was added, using the value when the compound was not added (the solvent of the compound, DMSO was added) as a control (0% inhibition).

[4] = molecular target: T2, EML4-ALK fusion polypeptide v1 (Homo sapiens, UniProt Q9UM73, D1529E/I1461V/K1491R); test: intracellular autophosphorylation of EML4-ALK fusion polypeptide v1 in v1 expressing 3T3 cells; assay type: cell-based; settings: 4 hours
T2 construct: expressed in transfected cells; host or cells: mouse 3T3 fibroblasts transfected with EML4-ALKv1/pMXS (v1 expressing 3T3 cells); for A10, grown as a subcutaneous tumour in nude mice
T2 sequence (Q9UM73 with tags, fused parts or gaps I1461V/K1491R/D1529E): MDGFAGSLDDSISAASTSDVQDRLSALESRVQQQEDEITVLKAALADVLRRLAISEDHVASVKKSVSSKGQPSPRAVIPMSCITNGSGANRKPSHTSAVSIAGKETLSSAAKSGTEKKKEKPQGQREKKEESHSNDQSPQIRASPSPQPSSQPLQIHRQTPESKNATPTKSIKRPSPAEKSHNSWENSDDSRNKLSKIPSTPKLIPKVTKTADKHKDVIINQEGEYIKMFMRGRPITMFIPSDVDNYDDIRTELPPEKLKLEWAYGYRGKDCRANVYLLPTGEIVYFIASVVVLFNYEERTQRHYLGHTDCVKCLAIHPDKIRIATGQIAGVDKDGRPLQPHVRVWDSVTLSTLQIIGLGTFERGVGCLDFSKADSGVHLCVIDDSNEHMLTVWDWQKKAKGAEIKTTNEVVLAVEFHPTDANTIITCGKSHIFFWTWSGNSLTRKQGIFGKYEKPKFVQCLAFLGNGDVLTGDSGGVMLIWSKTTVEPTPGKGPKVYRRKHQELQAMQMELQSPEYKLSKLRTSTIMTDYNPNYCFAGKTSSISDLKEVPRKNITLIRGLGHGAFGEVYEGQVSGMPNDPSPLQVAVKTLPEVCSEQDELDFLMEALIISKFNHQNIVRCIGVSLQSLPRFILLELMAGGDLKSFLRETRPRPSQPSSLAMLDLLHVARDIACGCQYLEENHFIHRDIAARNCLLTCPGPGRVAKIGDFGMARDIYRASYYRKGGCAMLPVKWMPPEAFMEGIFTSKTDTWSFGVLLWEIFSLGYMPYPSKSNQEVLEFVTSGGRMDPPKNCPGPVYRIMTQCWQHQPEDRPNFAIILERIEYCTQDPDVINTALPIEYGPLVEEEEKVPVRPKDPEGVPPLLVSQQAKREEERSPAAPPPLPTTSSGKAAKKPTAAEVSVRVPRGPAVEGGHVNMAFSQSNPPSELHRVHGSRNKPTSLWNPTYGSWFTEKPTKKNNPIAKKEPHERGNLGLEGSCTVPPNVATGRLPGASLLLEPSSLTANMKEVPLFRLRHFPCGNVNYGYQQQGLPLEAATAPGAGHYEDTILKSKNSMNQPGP

v1 expressing 3T3 cells = test: anchorage independent growth on spheroid plate, v1 expressing 3T3 cells; assay type: cell-based, mouse
Method: (§3) The v1 expressing 3T3 cells (Example 6(1)) and one of the human glioma cells expressing the full length ALK polypeptide and not expressing EML4-ALK fusion polynucleotide endogenously, U-87 MG cells, were seeded to a 96 well spheroid plate (Sumilon Celltight Spheroid 96U, Sumitomo Bakelite Inc.) at 3000 cells per well in a medium containing 10% fetal bovine serum (DMEM for v1 expressing 3T3 cells and RPMI 1640 for U-87MG). […] At the same time, cells were counted before the addition of drugs (Day 0). Then, cells were cultured under 5% CO2, at 37° C. for 3 days, mixed with a reagent for measuring cell number (CellTiter-Glo™ Luminescent Cell Viability Assay; Promega Inc.) stirred for 20 minutes, and the measurements (day 3) were carried out using a luminometer (ML3000 microtiter plate luminometer; Dynatech Laboratories Inc.).

U-87MG cells = test: anchorage independent growth on spheroid plate, U-87MG cells expressing full length ALK; assay type: cell-based, human; settings: 3 days; for inhibition at 0.01 µM: final concentration 10 nM
Method: as §3

[5] = test system: CD8 expressing BA/F3 cells; test: growth of CD8 expressing BA/F3 cells in the presence of IL-3; assay type: cell-based, mouse; settings: 1 μM, 5 μM or 10 μM
[6] = test system: v1 expressing BA/F3 cells; test: growth of v1 expressing BA/F3 cells in the absence of IL-3; assay type: cell-based, mouse; settings: 1 μM, 5 μM or 10 μM
Method: Next, compound A, which is a substance that inhibits the EML4-ALK fusion polypeptide v1, was added to BA/F3 cells which obtained the IL-3 independent growth potential by expressing the EML4-ALK fusion polypeptide v1, and its effect on cell growth was investigated. […] That is, it was confirmed that cells, growing dependently on the EML4-ALK fusion polynucleotide (oncogene), were killed by an inhibitor of the EML4-ALK fusion polypeptide v1.

[7] = test system: v1 expressing 3T3 cells (tumor); test: anti-tumor test against v1 expressing 3T3 cells inoculated subcutaneously in nude mice; assay type: in vivo, mouse; settings: once a day for 10 days, start 6 days after inoculation, otherwise similar procedure
Method: Administrations were performed once a day for 14 days, and body weight and tumor size were measured every other day. Tumor volume was calculated using the following formula. […] The administration of the compound D was started after 6 days of the inoculation and carried out once a day for 10 days, and then the tumor size was measured.

[8] = molecular target: T3, EML4-ALK fusion polypeptide v2 (Homo sapiens, UniProt Q9UM73, D1529E/I1461V/K1491R); test: intracellular autophosphorylation of EML4-ALK fusion polypeptide v2 in 293EBNA cells; assay type: cell-based; settings: final concentration 10 nM, 4 hours
T3 construct: expressed in transfected cells; host or cells: 293EBNA cells (Invitrogen) transfected with FLAG-EML4-ALKv2/pcDNA3
T3 sequence (Q9UM73 with tags, fused parts or gaps I1461V/K1491R/D1529E): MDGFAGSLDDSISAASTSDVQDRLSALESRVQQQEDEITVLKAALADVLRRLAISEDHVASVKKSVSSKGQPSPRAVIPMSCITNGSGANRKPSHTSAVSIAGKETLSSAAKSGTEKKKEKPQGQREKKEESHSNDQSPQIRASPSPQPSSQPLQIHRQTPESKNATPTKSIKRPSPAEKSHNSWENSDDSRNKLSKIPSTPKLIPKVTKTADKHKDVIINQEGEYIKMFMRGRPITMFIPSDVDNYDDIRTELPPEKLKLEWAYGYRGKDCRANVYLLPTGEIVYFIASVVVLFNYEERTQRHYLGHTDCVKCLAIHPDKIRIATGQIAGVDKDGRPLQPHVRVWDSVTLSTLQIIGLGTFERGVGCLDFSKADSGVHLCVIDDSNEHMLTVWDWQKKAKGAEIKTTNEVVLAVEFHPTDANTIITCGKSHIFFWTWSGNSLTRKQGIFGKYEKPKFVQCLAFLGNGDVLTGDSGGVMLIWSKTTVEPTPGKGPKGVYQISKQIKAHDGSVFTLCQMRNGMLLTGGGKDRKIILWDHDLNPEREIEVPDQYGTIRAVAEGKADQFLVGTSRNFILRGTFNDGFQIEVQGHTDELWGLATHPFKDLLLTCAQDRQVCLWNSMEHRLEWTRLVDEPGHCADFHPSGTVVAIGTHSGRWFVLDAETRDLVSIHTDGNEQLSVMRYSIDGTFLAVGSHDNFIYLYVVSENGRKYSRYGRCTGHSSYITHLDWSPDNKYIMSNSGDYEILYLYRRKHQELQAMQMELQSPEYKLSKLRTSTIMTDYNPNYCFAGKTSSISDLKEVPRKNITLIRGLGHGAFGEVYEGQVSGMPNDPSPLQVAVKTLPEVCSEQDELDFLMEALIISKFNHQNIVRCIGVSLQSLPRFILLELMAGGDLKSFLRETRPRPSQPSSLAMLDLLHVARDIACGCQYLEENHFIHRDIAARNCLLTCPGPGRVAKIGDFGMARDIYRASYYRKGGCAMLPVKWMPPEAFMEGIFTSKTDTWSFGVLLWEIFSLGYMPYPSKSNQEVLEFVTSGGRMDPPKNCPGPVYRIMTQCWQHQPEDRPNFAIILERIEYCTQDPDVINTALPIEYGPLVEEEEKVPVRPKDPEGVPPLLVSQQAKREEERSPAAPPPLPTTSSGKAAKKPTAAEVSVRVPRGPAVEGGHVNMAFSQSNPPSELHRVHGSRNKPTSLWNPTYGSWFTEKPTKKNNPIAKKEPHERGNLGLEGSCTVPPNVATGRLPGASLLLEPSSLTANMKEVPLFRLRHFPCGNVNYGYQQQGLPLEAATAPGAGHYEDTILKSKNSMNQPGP

[9] = Mus musculus, NIH3T3, read-out: inhibition rate of anchorage independent growth, v1 expressing 3T3 cells
[10] = Homo sapiens, U-87 MG, 72 h, read-out: inhibition rate of anchorage independent growth, U-87MG cell

T1 sequence (Q9UM73 with tags, fused parts or gaps): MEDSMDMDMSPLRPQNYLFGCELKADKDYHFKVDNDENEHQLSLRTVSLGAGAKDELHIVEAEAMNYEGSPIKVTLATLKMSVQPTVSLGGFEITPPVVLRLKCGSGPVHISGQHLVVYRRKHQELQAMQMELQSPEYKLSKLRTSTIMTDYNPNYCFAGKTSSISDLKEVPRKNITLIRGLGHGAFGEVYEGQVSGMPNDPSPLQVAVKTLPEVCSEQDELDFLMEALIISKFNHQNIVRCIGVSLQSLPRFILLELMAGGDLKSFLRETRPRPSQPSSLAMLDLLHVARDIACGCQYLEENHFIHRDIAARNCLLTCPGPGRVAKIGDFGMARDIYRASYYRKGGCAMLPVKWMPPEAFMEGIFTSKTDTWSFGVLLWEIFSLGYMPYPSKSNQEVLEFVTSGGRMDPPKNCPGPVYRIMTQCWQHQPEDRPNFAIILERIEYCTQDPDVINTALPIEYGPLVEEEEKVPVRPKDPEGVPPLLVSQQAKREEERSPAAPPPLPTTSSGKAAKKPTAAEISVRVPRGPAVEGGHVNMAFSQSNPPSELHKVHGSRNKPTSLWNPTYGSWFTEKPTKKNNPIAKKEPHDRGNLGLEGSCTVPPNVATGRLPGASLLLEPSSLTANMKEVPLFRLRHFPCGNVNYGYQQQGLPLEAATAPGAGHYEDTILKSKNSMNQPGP

| Compound | activity of NPM-ALK (NPM-ALK) | Inhibition on autophosphorylation ([1]; final concentration 10 μM) | Inhibition on peptide substrate ([2]; final concentration 10 μM) | Inhibition on autophosphorylation (BA/F3cells) ([3]; final concentration 10 μM) | Inhibition on autophosphorylation ([1]; final concentration 10 nM) | Inhibition on peptide substrate ([2]; final concentration 10 nM) | Inhibition on autophosphorylation (BA/F3cells) ([3]; final concentration 10 nM) | inhibition at 0.01 µM (v1 expressing 3T3 cells; [9]) | inhibition at 0.01 µM (U-87MG cells; [10]) | other results |
| --- | --- | --- | --- | --- | --- | --- | --- | --- | --- | --- |
| COc1cc2ncnc(Nc3ccc(O)cc3)c2cc1OC [WHI-P131, 4-(4′-Hydroxyphenyl)amino-6,7-dimethoxyquinazo line] | inhibit the activity of NPM-ALK | – | – | – | – | – | – | – | – | – |
| COc1cc2ncnc(Nc3ccc(O)c(Br)c3)c2cc1OC [compound A, 4-[(3′-Bromo-4′-hydroxyphenyl)amino]-6,7-dimethoxyquinazoline] | inhibit the activity of NPM-ALK | 104% | 99% | 74% | – | – | – | – | – | intracellular autophosphorylation of the EML4-ALK fusion polypeptide v1 (FIG. 4) ([3]; 1 μM, 5 μM and 10 μM, 3 hours): inhibits the intracellular autophosphorylation of the EML4-ALK fusion polypeptide v1 in a concentration-dependent manner; Inhibition on autophosphorylation (3T3cells) ([4]; final concentration 10 μM): 82%; inhibition rate of anchorage independent growth, v1 expressing 3T3 cells (v1 expressing 3T3 cells; final concentration 10 μM, 3 days, Day 0 = 100%, Day 3 = 0% inhibition): 106%; inhibition rate of anchorage independent growth, U-87MG cell (U-87MG cells; final concentration 10 μM): 15%; cell growth of CD8 expressing BA/F3 cells (FIG. 6(a)) [5]: a slight growth inhibition was observed; cell growth of v1 expressing BA/F3 cells (FIG. 6(b)) [6]: the cell growth was markedly inhibited by concentration-dependence of compound A and cell death was induced |
| O=C(COc1ccc(OC(F)(F)F)cc1)NCc1nc(C(=O)NCCc2cccc(Cl)c2)cs1 [compound B, N-[2-(3-chlorophenyl)ethyl]-2-[({[4-(trifluoromethoxy)phenoxy]acetyl}amino)methyl]-1,3-thiazole-4-carboxamide] | – | 68% | 56% | 77% | – | – | – | – | – | inhibition at 10 µM ([4]; NIH3T3, final concentration 10 μM, read-out: Inhibition on autophosphorylation (3T3cells)): 49%; inhibition at 10 µM (v1 expressing 3T3 cells; [9]): 91%; inhibition at 10 µM (U-87MG cells; Homo sapiens, U-87 MG, 72 h, final concentration 10 μM, read-out: inhibition rate of anchorage independent growth, U-87MG cell): 34% |
| COc1cc(N2CCC(N3CCN(C)CC3)CC2)ccc1Nc1ncc(Cl)c(Nc2ccccc2S(=O)(=O)C(C)C)n1 [compound C, 5-chloro-N^4-[2-(isopropylsulfonyl)phenyl]-N^2-{2-methoxy-4-[4-(4-methylpiperazin-1-yl)piperidin-1-yl]phenyl}pyrimidine-2,4-diamine] | – | – | – | – | 102% | 99% | 84% | 131% | -2% | – |
| CNS(=O)(=O)c1ccccc1Nc1nc(Nc2ccc(N3CCN(C)CC3)cc2OC)ncc1Br [compound D, 2-[(5-bromo-2-{[2-methoxy-4-(4-methylpiperazin-1-yl)phenyl]amino}pyrimidin-4-yl)amino]-N-methylbenzenesulfonamide] | – | – | – | – | 96% | 99% | 90% | 135% | -2% | inhibition at 0.01 µM ([4]; NIH3T3, final concentration 10 nM, read-out: Inhibition on autophosphorylation (3T3cells)): 86%; inhibition of growth of v1 expressing 3T3 cells (tumor), tumor volume [7]: 101%; inhibition at 0.01 µM [8]: 95% |
